Measurements as given in the NIST ThermoML archive (doi:10.1021/je900164a).

Experiment: xn = mol fraction of the nth substance listed
Conditions: 101 kPa, Liquid, Vibrating tube method

CCCC[N+](CCCC)(CCCC)CCCC.[Br-] [tetrabutylammonium bromide] + O
Conditions	mass density [kg/m3]
276.15 K, x1 = 0.0009	1001.35
276.15 K, x1 = 0.0018	1002.75
276.15 K, x1 = 0.00359	1005.6
276.15 K, x1 = 0.00715	1011.37
276.15 K, x1 = 0.01069	1017.09
276.15 K, x1 = 0.01421	1022.49
276.15 K, x1 = 0.0177	1027.72
276.15 K, x1 = 0.02202	1033.53
276.15 K, x1 = 0.02631	1038.46
276.15 K, x1 = 0.03056	1042.53
277.15 K, x1 = 0.0009	1001.35
277.15 K, x1 = 0.0018	1002.73
277.15 K, x1 = 0.00359	1005.52
277.15 K, x1 = 0.00715	1011.23
277.15 K, x1 = 0.01069	1016.88
277.15 K, x1 = 0.01421	1022.16
277.15 K, x1 = 0.0177	1027.3
277.15 K, x1 = 0.02202	1033.01
277.15 K, x1 = 0.02631	1037.94
277.15 K, x1 = 0.03056	1040.98
277.15 K, x1 = 0.03478	1045.39
277.15 K, x1 = 0.0431	1050.63
277.15 K, x1 = 0.05128	1054.86
277.15 K, x1 = 0.07499	1060.81
278.15 K, x1 = 0.0009	1001.32
278.15 K, x1 = 0.0018	1002.69
278.15 K, x1 = 0.00359	1005.47
278.15 K, x1 = 0.00715	1011.09
278.15 K, x1 = 0.01069	1016.66
278.15 K, x1 = 0.01421	1021.91
278.15 K, x1 = 0.0177	1026.96
278.15 K, x1 = 0.02202	1032.57
278.15 K, x1 = 0.02631	1037.41
278.15 K, x1 = 0.03056	1040.41
278.15 K, x1 = 0.03478	1044.76
278.15 K, x1 = 0.0431	1049.93
278.15 K, x1 = 0.05128	1054.13
278.15 K, x1 = 0.07499	1060.07
279.18 K, x1 = 0.0009	1001.28
279.18 K, x1 = 0.0018	1002.65
279.18 K, x1 = 0.00359	1005.39
279.18 K, x1 = 0.00715	1010.96
279.18 K, x1 = 0.01069	1016.45
279.18 K, x1 = 0.01421	1021.63
279.18 K, x1 = 0.0177	1026.61
279.18 K, x1 = 0.02202	1032.11
279.18 K, x1 = 0.02631	1036.89
279.18 K, x1 = 0.03056	1039.82
279.18 K, x1 = 0.03478	1044.11
279.18 K, x1 = 0.0431	1049.24
279.18 K, x1 = 0.05128	1053.4
279.18 K, x1 = 0.07499	1059.33
280.15 K, x1 = 0.0009	1001.23
280.15 K, x1 = 0.0018	1002.58
280.15 K, x1 = 0.00359	1005.29
280.15 K, x1 = 0.00715	1010.78
280.15 K, x1 = 0.01069	1016.22
280.15 K, x1 = 0.01421	1021.32
280.15 K, x1 = 0.0177	1026.22
280.15 K, x1 = 0.02202	1031.62
280.15 K, x1 = 0.02631	1036.32
280.15 K, x1 = 0.03056	1039.11
280.15 K, x1 = 0.03478	1043.44
280.15 K, x1 = 0.0431	1048.51
280.15 K, x1 = 0.05128	1052.65
280.15 K, x1 = 0.07499	1058.55
281.15 K, x1 = 0.0009	1001.16
281.15 K, x1 = 0.0018	1002.49
281.15 K, x1 = 0.00359	1005.18
281.15 K, x1 = 0.00715	1010.61
281.15 K, x1 = 0.01069	1015.98
281.15 K, x1 = 0.01421	1020.99
281.15 K, x1 = 0.0177	1025.83
281.15 K, x1 = 0.02202	1031.18
281.15 K, x1 = 0.02631	1035.8
281.15 K, x1 = 0.03056	1038.63
281.15 K, x1 = 0.03478	1042.82
281.15 K, x1 = 0.0431	1048.23
281.15 K, x1 = 0.05128	1051.94
281.15 K, x1 = 0.07499	1057.83
282.15 K, x1 = 0.0009	1001.09
282.15 K, x1 = 0.0018	1002.4
282.15 K, x1 = 0.00359	1005.07
282.15 K, x1 = 0.00715	1010.44
282.15 K, x1 = 0.01069	1015.72
282.15 K, x1 = 0.01421	1020.68
282.15 K, x1 = 0.0177	1025.44
282.15 K, x1 = 0.02202	1030.69
282.15 K, x1 = 0.02631	1035.23
282.15 K, x1 = 0.03056	1038.05
282.15 K, x1 = 0.03478	1042.16
282.15 K, x1 = 0.0431	1047.12
282.15 K, x1 = 0.05128	1051.21
282.15 K, x1 = 0.07499	1057.05
283.15 K, x1 = 0.0009	1001
283.15 K, x1 = 0.0018	1002.3
283.15 K, x1 = 0.00359	1004.95
283.15 K, x1 = 0.00715	1010.26
283.15 K, x1 = 0.01069	1015.5
283.15 K, x1 = 0.01421	1020.38
283.15 K, x1 = 0.0177	1025.06
283.15 K, x1 = 0.02202	1030.21
283.15 K, x1 = 0.02631	1034.68
283.15 K, x1 = 0.03056	1037.44
283.15 K, x1 = 0.03478	1041.49
283.15 K, x1 = 0.0431	1046.41
283.15 K, x1 = 0.05128	1050.46
283.15 K, x1 = 0.07499	1056.3
288.15 K, x1 = 0.0009	1000.35
288.15 K, x1 = 0.0018	1001.6
288.15 K, x1 = 0.00359	1004.1
288.15 K, x1 = 0.00715	1009.15
288.15 K, x1 = 0.01069	1014.04
288.15 K, x1 = 0.01421	1018.72
288.15 K, x1 = 0.0177	1023.06
288.15 K, x1 = 0.02202	1027.79
288.15 K, x1 = 0.02631	1031.87
288.15 K, x1 = 0.03056	1035.33
288.15 K, x1 = 0.03478	1038.35
288.15 K, x1 = 0.0431	1042.93
288.15 K, x1 = 0.05128	1046.34
293.15 K, x1 = 0.0009	999.405
293.15 K, x1 = 0.0018	1000.6
293.15 K, x1 = 0.00359	1002.98
293.15 K, x1 = 0.00715	1007.76
293.15 K, x1 = 0.01069	1012.37
293.15 K, x1 = 0.01421	1016.75
293.15 K, x1 = 0.0177	1020.77
293.15 K, x1 = 0.02202	1025.18
293.15 K, x1 = 0.02631	1028.99
293.15 K, x1 = 0.03056	1032.22
293.15 K, x1 = 0.03478	1035.02
293.15 K, x1 = 0.0431	1039.41
293.15 K, x1 = 0.05128	1042.74
298.15 K, x1 = 0.0009	998.18
298.15 K, x1 = 0.0018	999.32
298.15 K, x1 = 0.00359	1001.59
298.15 K, x1 = 0.00715	1006.13
298.15 K, x1 = 0.01069	1010.49
298.15 K, x1 = 0.01421	1014.53
298.15 K, x1 = 0.0177	1018.3
298.15 K, x1 = 0.02202	1022.43
298.15 K, x1 = 0.02631	1026
298.15 K, x1 = 0.03056	1029.06
298.15 K, x1 = 0.03478	1031.68
298.15 K, x1 = 0.0431	1035.89
298.15 K, x1 = 0.05128	1039.06
303.15 K, x1 = 0.0009	996.74
303.15 K, x1 = 0.0018	997.82
303.15 K, x1 = 0.00359	999.99
303.15 K, x1 = 0.00715	1004.3
303.15 K, x1 = 0.01069	1008.43
303.15 K, x1 = 0.01421	1012.26
303.15 K, x1 = 0.0177	1015.77
303.15 K, x1 = 0.02202	1019.65
303.15 K, x1 = 0.02631	1022.97
303.15 K, x1 = 0.03056	1025.85
303.15 K, x1 = 0.03478	1028.34
303.15 K, x1 = 0.0431	1032.36
303.15 K, x1 = 0.05128	1035.44
308.15 K, x1 = 0.0009	995.085
308.15 K, x1 = 0.0018	996.14
308.15 K, x1 = 0.00359	998.22
308.15 K, x1 = 0.00715	1002.32
308.15 K, x1 = 0.01069	1006.21
308.15 K, x1 = 0.01421	1009.84
308.15 K, x1 = 0.0177	1013.13
308.15 K, x1 = 0.02202	1016.74
308.15 K, x1 = 0.02631	1019.88
308.15 K, x1 = 0.03056	1022.54
308.15 K, x1 = 0.03478	1024.97
308.15 K, x1 = 0.0431	1028.78
308.15 K, x1 = 0.05128	1031.82
